Measured values taken from patent publication US20180153830A1, “SELECTIVE INHIBITORS OF UNDIFFERENTIATED CELLS” (Yissum Research Development Company of the Hebrew …, priority 2012, published 2018).
Several values for one entry are separate records, joined by “and”; a condition that tells them apart may be missing. Identical values can stand only once.

Assays:
[1] = tested on: spliced isoform sXBP1 in human ES cells; assay: sXBP1 quantitative PCR, ES cells; format: cell-based; details: 20 μM PluriSIn #1 (12 hours) or 100 nm A939572
[2] = tested on: mouse embryos (inner cell mass); assay: In-vitro embryonic development experiments; format: cell-based; details: for proportion of high quality blastocysts: compound alone; for embryos developing into good quality (category A/B) blastocysts: compound alone (20 μM PluriSIn #1 or 100 nm A939572); for embryos developing into good quality blastocysts with oleic acid / proportion of high quality blastocysts with oleic acid: compound with 100 μM oleic acid
Method: Superovulation was induced in female mice (CB6F1/OLAHSD and ICR:HSD(CD-1)), by injection of gonadotropins: intraperitoneal injection of 5 IU PMSG (pregnant mare's serum gonadotropin) at 1:00 P.M. was followed by an intraperitoneal injection of 5 IU hCG (human chorionic gonadotropin) 47 hours later, in accordance with the procedures described by Najy et al. [Manipulating the mouse embryo: a laboratory manual, 3rd Edn., Cold Spring Harbor Laboratory Press (2003)].
Females were mated with stud males immediately after the second injection, and plugging was evident the next morning. Pregnant female mice were sacrificed at approximately 36 hours p.c. (post coitum), and two-cell embryos were collected in accordance with the procedures described by Najy et al. [Manipulating the mouse embryo: a laboratory manual, 3rd Edn., Cold Spring Harbor Laboratory Press (2003)]. The abdominal cavity was opened, and the oviduct was cut and transferred to a Petri dish containing M2 medium at room temperature. The oviduct was flushed with M2 medium, and embryos were picked up using a pipette and washed in M2 medium to rinse off debris. Embryos were then transferred to microdrops of M16 medium. A 35 mm culture dish (Falcon BD) containing drops of 40 μl M16 medium, covered with mineral oil, was prepared the day before, and incubated overnight at a temperature of 37° C. under 5% CO2. Embryos were then transferred to these microdrops following their collection, and incubated at a temperature of 37° C. under 5% CO2. The development of the embryos was examined twice a day using light microscopy imaging. At the morula stage (approximately 3.5 days p.c.), embryos were transferred either to microdrops of 40 μl M16 medium with 20 μM PluriSIn #1 (isonicotinic acid N′-phenylhydrazide) in 0.2% DMSO, or to control microdrops with 0.2% DMSO. Other control embryos were left at the original microdrops to control for possible effects of the transfer itself. At approximately 4 days p.c. and 4.5 days p.c., the embryos were examined using light microscopy imaging, and blastocysts were graded as described by Cortes et al. [Stem Cells and Development 17:255-267 (2008)].
As described in the Materials and Methods section, a series of independent experiments were performed with two strains of mice, in which two-cell embryos were collected from the oviducts of pregnant mice at approximately 1.5 days post coitum, and these embryos were then let to develop in vitro. The embryos reached the morula stage at approximately 3.5 days post coitum, and were then transferred either to drops with 20 μM PluriSIn #1 (17 embryos in total), drops with 20 μM PluriSIn #1 and 100 μM oleic acid (7 embryos in total), or to control drops with 0.2% DMSO (8 embryos in total), while other control embryos were left to develop without transfer at all (10 embryos in total). Using light microscopy imaging, the development of the embryos was followed until they became mature blastocysts (at approximately 4.5 days post coitum, after which all embryos disintegrated in culture). The blastocysts were then classified into three distinct categories: (A) good quality mouse blastocysts with large and distinct ICM; (B) mouse blastocysts with distinct, but smaller, ICM; and (C) bad quality mouse blastocysts with indistinguishable ICM, as described by Cortes et al. [Stem Cells and Development 17:255-267 (2008)].
The above experiments with mouse embryos were then repeated using the SCD1 inhibitor A939572 instead of PluriSIn #1, and compared with the results obtained with PluriSIn #1, in order to confirm that the effects of PluriSIn #1 are associated with inhibition of SCD1 activity.

[3] = tested on: normal (immortalized) BJ fibroblasts; assay: Methylene blue viability, immortalized BJ fibroblasts; format: cell-based, human; details: up to 100 μM, 72 hours, 2% fetal bovine serum
Method: For the high-throughput screens, relative cell number was determined using a CellTiter-Glo® Luminescent Cell Viability Assay as described hereinabove. Otherwise, relative cell numbers were determined by fixating the cells with 0.5% glutardialdehyde and staining with methylene blue dissolved in 0.1 M boric acid (pH 8.5). Color extraction was performed using 0.1 M hydrochloric acid, and the staining (which is proportional to cell number) was quantified by measuring absorbance at a wavelength of 650 nm.
In one experiment, immortalized BJ fibroblasts served as differentiated cells and were compared with BJ fibroblasts induced to undergo cellular transformation, which served as their undifferentiated cancerous counterparts. […]
The differentiated and undifferentiated cells were exposed to PluriSIn #1 at concentrations of up to 100 μM for 72 hours under low (2%) fetal bovine serum conditions. Their viability was then measured using a methylene blue viability assay, as described hereinabove.

SCD1 = molecular target: T1, SCD1 (Homo sapiens, UniProt O00767); assay: In vitro biochemical screen for SCD1 inhibitors; details: previous studies
T1 sequence (O00767 1-359): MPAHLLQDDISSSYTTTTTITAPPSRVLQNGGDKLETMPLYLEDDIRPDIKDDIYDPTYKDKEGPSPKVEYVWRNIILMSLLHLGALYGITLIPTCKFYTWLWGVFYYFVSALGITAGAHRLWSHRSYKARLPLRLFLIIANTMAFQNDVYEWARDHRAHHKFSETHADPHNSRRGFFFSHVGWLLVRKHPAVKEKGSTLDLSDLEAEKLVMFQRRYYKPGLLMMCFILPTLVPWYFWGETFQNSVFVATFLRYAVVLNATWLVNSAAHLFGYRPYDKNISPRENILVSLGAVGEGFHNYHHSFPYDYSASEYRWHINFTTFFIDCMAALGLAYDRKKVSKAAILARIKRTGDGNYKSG
From the text: Inhibition of SCD1 has been reported to induce ER stress and UPR in some human cancer cell lines, leading to apoptosis of these cells [Roongta et al., Molecular Cancer Research 9:1551-1561 (2011); Minville-Walz et al., PloS One 5:e14363 (2010); Scaglia et al., PloS One 4:e6812 (2009); Hess et al., PloS One 5:e1394 (2010); Morgan-Lappe et al., Cancer Research 67:4390-4398 (2007); Mason et al., PLoS One 7:e33823 (2012)].

Structure (SMILES)	increase in expression of spliced isoform sXBP1, ES cells [1]	proportion of high quality blastocysts [2] [%]	embryos developing into good quality (category A/B) blastocysts [2]	embryos developing into good quality blastocysts with oleic acid [2]	proportion of high quality blastocysts with oleic acid [2] [%]	effect on normal (immortalized) BJ fibroblasts [3]	SCD1 inhibition in an in vitro biochemical screen (SCD1)	embryos developing into blastocysts with no distinguished ICM (category C) ([2]; 20 μM)	embryos stuck at the morula stage ([2]; 20 μM)
CNC(=O)c1cccc(NC(=O)N2CCC(Oc3ccccc3Cl)CC2)c1 [A939572, 4-(2-chlorophenoxy)-N-(3-(methylcarbamoyl)-phenyl)piperidine-1-carboxamide, reference compound]	approximately 2 fold	56	5 of 9	5 of 7	71	–	–	–	–
O=C(NNc1ccccc1)c1ccncc1 [PluriSIn #1, isonicotinic acid N′-phenylhydrazide]	approximately 3.5 fold	41	7 of 17 and 7/17	5 of 7	71	little effect	possible direct inhibitors of SCD1	6 of 17 and 6/17	4 of 17 and 4/17
Cc1ccc(NNC(=O)C(O)(c2ccccc2)c2cccs2)cc1 (stereo not drawn) [PluriSIn #6, 2-hydroxy-2-(thiophen-2-yl)-2-phenylacetic acid 4-methyl-N′-phenylhydrazide]	–	–	–	–	–	–	possible direct inhibitors of SCD1	–	–
